# Data published in patent US5444085A, “Methods of inhibiting HIV and inhibiting the activation of HIV” (Warner-Lambert Company, priority 1994, dated 1995).
# How the values were obtained:
# [1] = tested on: OM-10.1 cells (HIV-1 activation); settings: poster Nov. 3-7 1991; cited from earlier work
# HIV-infected cells = settings: Hamamoto et al. 1989; cited from earlier work
# [2] = tested on: OM-10.1 cells (HIV-1 activation); assay: Supernatant reverse transcriptase activity / HIV-1 activation in OM-10.1 cultures pretreated with test compound then TNF-α induced (Example 1); assay type: cell-based; settings: for stimulation index (SI) value of the reverse transcriptase activity: TNF-α treated vs non-TNF-α medium culture
# From the text: The cellular pathways involved in mediating the activating signal from the plasma membrane to the integrated virus, resulting in HIV-1 expression, are much less clear. Recently, the development of a reliable and simple system for evaluating compounds that could prevent activation of latent HIV was reported at the National […] (NCDDG)/AIDS by P. Feorino, S. T. Butera, T. M. Folks, and R. F. Schinazi, San Diego, Calif., Nov. 3-7, 1991. […] The expression of CD4+ on the cell surface and the activity of reverse transcriptase are used as markers for quantitating viral expression. Alternatively, other HIV markers, such as protease activity, which are known to those of skill in the art can be used. OM-10.1 cells remain CD4^+ until viral activation and respond to tumor necrosis factor induction, and therefore, these cultures are used to conveniently and rapidly examine pharmacologics for an ability to prevent CD4^+ down modulation (decrease in expression of CD4^+ on the cell surface) and HIV-1 expression.
# Example 1 was performed as described by Butera ST, et al., J. Virol. 1991;65:4645-4653. Test compounds were first dissolved in 100% DMSO to the indicated stock concentrations below in Table I. The stock solution was then diluted in tissue culture starting at 1:100(10/-2) and proceeding on as indicated.
# OM-10.1 cells were then pretreated for 4 hours with the test compounds prior to TNF-α induction. TNF-α was added at 20 U/ml and induced cells were examined at 24 hours for evidence of surface CD4 down-modulation, as an indication of viral activation. Cells were also harvested after 24 hours of TNF-α induction for drug toxicity, being labeled with ^3 H thymidine during the final 18 hours in culture. At […], cell-free culture supernatant was collected for reverse transcriptase determination, as a further verification of the extent of HIV-1 activation. CD4 surface staining for flow cytometry and reverse transcriptase analysis were performed as described.
# OM-10.1 cells = assay: Return to latency of TNF-α pre-activated OM-10.1 cells, percent CD4-positive cells by flow cytometry (Example 2); assay type: cell-based
# Procedure: Moreover, in Example 2 the experiment was extended through 96 hours after the removal of TNF-α.
molecule,measurement,setting,value
"Cc1cn([C@H]2C[C@H](F)[C@@H](CO)O2)c(=O)[nH]c1=O [3'-fluoro-3'-deoxythymidine (FLT), 3'-fluoro-3'-deoxythymidine]",inhibition of the activation of HIV-1,[1],modest inhibitors of the activation of HIV-1
CCCCCCCCCCCCCC(=O)O[C@@H]1[C@@H](C)[C@@]2(O)[C@@H](C=C(CO)C[C@]3(O)C(=O)C(C)=C[C@@H]23)[C@@H]2C(C)(C)[C@]12OC(C)=O [12-O-tetradecanoyl-phorbol-13-acetate],CD4 down regulation and viral expression,HIV-infected cells,mediates CD4 down regulation and viral expression in HIV-infected cells
CC(=O)N(O)CCCCCNC(=O)CCC(=O)N(O)CCCCCNC(=O)CCC(=O)N(O)CCCCCN [desferrioxamine],inhibition of the activation of HIV-1,[1],modest inhibitors of the activation of HIV-1
"COc1ccc2c(c1)c(OC(C)C)c(C(N)=O)[s+]2[O-] (stereo not drawn) [Test Compound B, 5-methoxy-3-(1-methylethoxy)benzothiophene-2-carboxamide-, 1-oxide]",inhibition at 0.035 µM,"[2]; Human immunodeficiency virus 1, dilution 1:10 6 (A 19.5 nM; B 35.0 nM), TNF-α 20 U/ml, read-out: percent inhibition of the reverse transcriptase activity",0%
same,inhibition at 17.75 µM,"[2]; Human immunodeficiency virus 1, dilution 1:2000 (A 10.0 μM; B 17.75 μM), TNF-α 20 U/ml, read-out: percent inhibition of the reverse transcriptase activity",72.9%
same,inhibition at 8.88 µM,"[2]; Human immunodeficiency virus 1, dilution 1:4000 (A 5.0 μM; B 8.88 μM), TNF-α 20 U/ml, read-out: percent inhibition of the reverse transcriptase activity",44%
same,inhibition at 4.44 µM,"[2]; Human immunodeficiency virus 1, dilution 1:8000 (A 2.5 μM; B 4.44 μM), TNF-α 20 U/ml, read-out: percent inhibition of the reverse transcriptase activity",26.4%
same,inhibition at 2.22 µM,"[2]; Human immunodeficiency virus 1, dilution 1:16,000 (A 1.25 μM; B 2.22 μM), TNF-α 20 U/ml, read-out: percent inhibition of the reverse transcriptase activity",18.2%
same,inhibition at 1.11 µM,"[2]; Human immunodeficiency virus 1, dilution 1:32,000 (A 0.62 μM; B 1.11 μM), TNF-α 20 U/ml, read-out: percent inhibition of the reverse transcriptase activity",19.6%
same,inhibition at 0.55 µM,"[2]; Human immunodeficiency virus 1, dilution 1:64,000 (A 0.31 μM; B 0.55 μM), TNF-α 20 U/ml, read-out: percent inhibition of the reverse transcriptase activity",0.68%
same,inhibition at 0.28 µM,"[2]; Human immunodeficiency virus 1, dilution 1:128,000 (A 0.16 μM; B 0.28 μM), TNF-α 20 U/ml, read-out: percent inhibition of the reverse transcriptase activity",3.67%
same,inhibition at 0.14 µM,"[2]; Human immunodeficiency virus 1, dilution 1:256,000 (A 78.0 nM; B 0.14 μM), TNF-α 20 U/ml, read-out: percent inhibition of the reverse transcriptase activity",11.5%
same,inhibition at 0.07 µM,"[2]; Human immunodeficiency virus 1, dilution 1:512,000 (A 39.0 nM; B 70.0 nM), TNF-α 20 U/ml, read-out: percent inhibition of the reverse transcriptase activity",1.55%
same,anti-induction activity in the OM-10.1 cell system,[2]; TNF-α induced,appeared to have anti-induction activity
same,inhibition of HIV-1 activation,[2]; concentrations between 10 and 1 μM,effective at substantially inhibiting HIV-1 activation
same,mean reverse transcriptase cpm values,"[2]; dilution 1:10 6 (A 19.5 nM; B 35.0 nM), TNF-α 20 U/ml","30,025 cpm"
same,stimulation index (SI) value of the reverse transcriptase activity,[2]; dilution 1:10 6 (A 19.5 nM; B 35.0 nM),8.28
same,mean reverse transcriptase cpm values,"[2]; dilution 1:2000 (A 10.0 μM; B 17.75 μM), TNF-α 20 U/ml","7,725 cpm"
same,stimulation index (SI) value of the reverse transcriptase activity,[2]; dilution 1:2000 (A 10.0 μM; B 17.75 μM),2.13
same,mean reverse transcriptase cpm values,"[2]; dilution 1:4000 (A 5.0 μM; B 8.88 μM), TNF-α 20 U/ml","15,984 cpm"
same,stimulation index (SI) value of the reverse transcriptase activity,[2]; dilution 1:4000 (A 5.0 μM; B 8.88 μM),4.41
same,mean reverse transcriptase cpm values,"[2]; dilution 1:8000 (A […]; B 4.44 μM), TNF-α 20 U/ml","21,009 cpm"
same,stimulation index (SI) value of the reverse transcriptase activity,[2]; dilution 1:8000 (A […]; B 4.44 μM),5.80
same,mean reverse transcriptase cpm values,"[2]; dilution 1:16,000 (A 1.25 μM; B 2.22 μM), TNF-α 20 U/ml","23,336 cpm"
same,stimulation index (SI) value of the reverse transcriptase activity,"[2]; dilution 1:16,000 (A 1.25 μM; B 2.22 μM)",6.44
same,mean reverse transcriptase cpm values,"[2]; dilution 1:32,000 (A 0.62 μM; B 1.11 μM), TNF-α 20 U/ml","22,931 cpm"
same,stimulation index (SI) value of the reverse transcriptase activity,"[2]; dilution 1:32,000 (A 0.62 μM; B 1.11 μM)",6.33
same,mean reverse transcriptase cpm values,"[2]; dilution 1:64,000 (A 0.31 μM; B 0.55 μM), TNF-α 20 U/ml","28,334 cpm"
same,stimulation index (SI) value of the reverse transcriptase activity,"[2]; dilution 1:64,000 (A 0.31 μM; B 0.55 μM)",7.82
same,mean reverse transcriptase cpm values,"[2]; dilution 1:128,000 (A 0.16 μM; B 0.28 μM), TNF-α 20 U/ml","27,480 cpm"
same,stimulation index (SI) value of the reverse transcriptase activity,"[2]; dilution 1:128,000 (A 0.16 μM; B 0.28 μM)",7.58
same,mean reverse transcriptase cpm values,"[2]; dilution 1:256,000 (A 78.0 nM; B 0.14 μM), TNF-α 20 U/ml","25,257 cpm"
same,stimulation index (SI) value of the reverse transcriptase activity,"[2]; dilution 1:256,000 (A 78.0 nM; B 0.14 μM)",6.97
same,mean reverse transcriptase cpm values,"[2]; dilution 1:512,000 (A 39.0 nM; B 70.0 nM), TNF-α 20 U/ml","28,085 cpm"
same,stimulation index (SI) value of the reverse transcriptase activity,"[2]; dilution 1:512,000 (A 39.0 nM; B 70.0 nM)",7.75
same,percent CD4-positive cells,"OM-10.1 cells; 0.5 μM, 24 hours",5.3%
same,percent CD4-positive cells,"OM-10.1 cells; 0.5 μM, 48 hours",20.6%
same,percent CD4-positive cells,"OM-10.1 cells; 0.5 μM, 72 hours",47.9%
same,percent CD4-positive cells,"OM-10.1 cells; 0.5 μM, 96 hours",75.1%
same,percent CD4-positive cells,"OM-10.1 cells; 0.5 μM, T-0 (after 24 hours TNF-α, before compound)",4.0%
same,percent CD4-positive cells,"OM-10.1 cells; 0.5 μM, T-24 (baseline, before TNF-α and compound)",89.0%
same,percent CD4-positive cells,"OM-10.1 cells; 10 μM, 24 hours",33.5%
same,percent CD4-positive cells,"OM-10.1 cells; 10 μM, 48 hours",96.5%
same,percent CD4-positive cells,"OM-10.1 cells; 10 μM, 72 hours",97.6%
same,percent CD4-positive cells,"OM-10.1 cells; 10 μM, 96 hours",98.7%
same,percent CD4-positive cells,"OM-10.1 cells; 10 μM, T-0 (after 24 hours TNF-α, before compound)",4.0%
same,percent CD4-positive cells,"OM-10.1 cells; 10 μM, T-24 (baseline, before TNF-α and compound)",89.0%
"interferon Y: interferon Y (protein, UniProt P01579 24-161, looked up) Interferon gamma: QDPYVKEAENLKKYFNAGHSDVADNGTLFLGILKNWKEESDRKIMQSQIVSFYFKLFKNFKDDQSIQKSVETIKEDMNVKFFNSNKKKRDDFEKLTNYSVTDLNVQRKAIHELIQVMAELSPAAKTGKRKRSQMLFRG",inhibition of the activation of HIV-1,[1],modest inhibitors of the activation of HIV-1
